Results: patent publication US20170291905A1, “ARGININE […] INHIBITORS AND USES THEREOF” (Epizyme, Inc., priority 2014, published 2017)

Biological target: T1, full-length human PRMT1 isoform 1 (GST-tagged) (Homo sapiens, UniProt Q99873)
T1 construct: GST-tagged PRMT1 was eluted with 50 mM Tris, 2 mM glutathione, pH 7.8, dialysed in buffer A and concentrated; made in house; host or cells: High Five insect cells (baculovirus)
Experiment: PRMT1 biochemical assay (3H-SAM Flashplate, histone H4 36-50 peptide)
Settings: 0.5 nM PRMT1, 30 min preincubation, 20 nM peptide
Description: S-adenosylmethionine (SAM), S-adenosylhomocysteine (SAH), bicine, Tween20, dimethylsulfoxide (DMSO), bovine skin gelatin (BSG), and Tris(2-carboxyethyl)phosphine hydrochloride solution (TCEP) were purchased from Sigma-Aldrich at the highest level of purity possible. ^3H-SAM was purchase from American Radiolabeled Chemicals with a specific activity of 80 Ci/mmol. 384-well streptavidin Flashplates were purchased from PerkinElmer.
Peptide representative of human histone H4 residues 36-50 was synthesized with an N-terminal linker-affinity tag motif and a C-terminal amide cap by 21st Century Biochemicals. The peptide was purified by high-performance liquid chromatography (HPLC) to greater than 95% purity and confirmed by liquid chromatography mass spectrometry (LC-MS). The sequence was Biot-Ahx-[…]-amide (SEQ ID NO.:1).
Full-length human PRMT1 isoform 1 (NM_001536.5) transcript clone was amplified from an HEK 293 cDNA library, incorporating flanking 5′ sequence encoding a FLAG tag ([…]) (SEQ ID NO.:2) fused directly to Met 1 of PRMT1. The amplified gene was subcloned into pFastBacI (Life Technologies) modified to encode an N-terminal GST tag and a TEV cleavage sequence
Recombinant baculovirus were generated according to Bac-to-Bac kit instructions (Life Technologies). Protein over-expression was accomplished by infecting exponentially growing High Five insect cell culture at 1.5×10^6 cell/ml with 1:100 ratio of virus. Infections were carried out at 27° C. for 48 hours, harvested by centrifugation, and stored at −80° C. for purification.
GST-tagged PRMT1 was eluted with 50 mM Tris, 2 mM glutathione, pH 7.8, dialysed in buffer A and concentrated to 1 mg/mL. The purity of recovered protein was 73%. Reference: Wasilko, D. J. and S. E. Lee: “TIPS: titerless infected-cells preservation and scale-up” Bioprocess J., 5 (2006), pp. 29-32.
General Procedure for PRMT1 Enzyme Assays on Peptide Substrates.
The assays were all performed in a buffer consisting of 20 mM Bicine (pH=7.6), 1 mM TCEP, 0.005% BSG, and 0.002% Tween 20, prepared on the day of use. Compounds in 100% DMSO (1 ul) were spotted into a polypropylene 384-well V-bottom plates (Greiner) using a Platemate Plus outfitted with a 384-channel head (Thermo Scientific). DMSO (1 ul) was added to Columns 11, 12, 23, 24, rows A-H for the maximum signal control and 1 ul of SAH, a known product and inhibitor of PRMT1, was added to columns 11, 12, 23, 24, rows I-P for the minimum signal control. A cocktail (40 ul) containing the PRMT1 enzyme was added by Multidrop Combi (Thermo-Fisher). The compounds were allowed to incubate with PRMT1 for 30 min at room temperature, then a cocktail (10 ul) containing SAM and peptide was added to initiate the reaction (final volume=51 ul). The final concentrations of the components were as follows: PRMT1 was 0.5 nM, ^3H-SAM was 200 nM, non-radiolabeled SAM was 1.5 uM, peptide was 20 nM, SAH in the minimum signal control wells was 1 mM, and the DMSO concentration was 2%. The assays were stopped by the addition of non-radiolabeled SAM (10 ul) to a final concentration of 300 uM, which dilutes the ^3H-SAM to a level where its incorporation into the peptide substrate is no longer detectable. 50 ul of the reaction in the 384-well polypropylene plate was then transferred to a 384-well Flashplate and the biotinylated peptides were allowed to bind to the streptavidin surface for at least 1 hour before being washed once with 0.1% Tween20 in a Biotek ELx405 plate washer. The plates were then read in a PerkinElmer TopCount plate reader to measure the quantity of ^3H-labeled peptide bound to the Flashplate surface, measured as disintegrations per minute (dpm) or alternatively, referred to as counts per minute (cpm).
Where dpm=disintegrations per minute, cmpd=signal in assay well, and min and max are the respective minimum and maximum signal controls. […]

T1 sequence (Q99873 with tags, fused parts or gaps): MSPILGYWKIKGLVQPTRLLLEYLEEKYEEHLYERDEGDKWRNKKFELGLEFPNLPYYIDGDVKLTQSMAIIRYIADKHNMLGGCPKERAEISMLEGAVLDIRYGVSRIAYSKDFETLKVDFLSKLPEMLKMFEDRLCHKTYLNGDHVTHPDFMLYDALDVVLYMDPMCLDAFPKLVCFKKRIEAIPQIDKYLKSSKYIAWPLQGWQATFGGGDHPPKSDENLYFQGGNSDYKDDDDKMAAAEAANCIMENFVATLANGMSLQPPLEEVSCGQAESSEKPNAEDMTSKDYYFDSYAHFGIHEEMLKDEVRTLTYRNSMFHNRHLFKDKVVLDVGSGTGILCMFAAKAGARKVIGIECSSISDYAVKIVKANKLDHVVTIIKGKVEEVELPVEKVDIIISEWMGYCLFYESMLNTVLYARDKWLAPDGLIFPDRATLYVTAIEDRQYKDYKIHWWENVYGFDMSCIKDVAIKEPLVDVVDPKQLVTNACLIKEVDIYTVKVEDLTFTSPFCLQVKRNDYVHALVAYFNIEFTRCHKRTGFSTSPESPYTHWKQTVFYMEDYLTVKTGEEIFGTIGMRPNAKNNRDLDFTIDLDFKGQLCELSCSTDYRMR

CNCCN(C)Cc1c[nH]nc1C1CCC(C)(C)[C@H](COCCOC)C1 (stereo partly drawn) [compound 35, {2-[({3-[(3R)-3-[(2-methoxyethoxy)methyl]-4,4-dimethylcyclohexyl]-1H-pyrazol-4-yl}methyl)(methyl)amino]ethyl}(methyl)amine]
IC50: 0.0519 µM

CCCOCC1(COCCC)CCC(c2n[nH]cc2CN(C)CCNC)CC1 [compound 36, N^1-((3-(4,4-bis(propoxymethyl)cyclohexyl)-1H-pyrazol-4-yl)methyl)-N^1,N^2-dimethylethane-1,2-diamine]
IC50: 0.00793 µM

CC[C@]12CC[C@](CC)(C[C@H](c3n[nH]cc3CN(C)CCNC)C1)O2 [compound 37, N1-((3-((1R,3r,5S)-1,5-diethyl-8-oxabicyclo[3.2.1]octan-3-yl)-1H-pyrazol-4-yl)methyl)-N1,N2-dimethylethane-1,2-diamine]
IC50: 0.0252 µM

CC[C@]12CC[C@](CC)(C[C@@H](c3n[nH]cc3CN(C)CCNC)C1)O2 [compound 38, N1-((3-((1R,3s,5S)-1,5-diethyl-8-oxabicyclo[3.2.1]octan-3-yl)-1H-pyrazol-4-yl)methyl)-N1,N2-dimethylethane-1,2-diamine]
IC50: 0.111 µM

CNCCN(C)Cc1ccnn1[C@H]1CC[C@]2(CC1)CC(C)(C)CO2 [compound 50, N1-((1-((5r,8r)-3,3-dimethyl-1-oxaspiro[4.5]decan-8-yl)-1H-pyrazol-5-yl)methyl)-N1,N2-dimethylethane-1,2-diamine]
IC50: 0.0209 µM

Cc1[nH]nc([C@H]2CC[C@@]3(CC2)CC(C)(C)CO3)c1CN(C)CCN [compound 51, N1-((3-((5s,8s)-3,3-dimethyl-1-oxaspiro[4.5]decan-8-yl)-5-methyl-1H-pyrazol-4-yl)methyl)-N1-methylethane-1,2-diamine]
IC50: 0.012 µM

Cc1[nH]nc([C@H]2CC[C@]3(CC2)CC(C)(C)CO3)c1CN(C)CCN [compound 52, N1-((3-((5r,8r)-3,3-dimethyl-1-oxaspiro[4.5]decan-8-yl)-5-methyl-1H-pyrazol-4-yl)methyl)-N1-methylethane-1,2-diamine]
IC50: 0.016 µM

CNCCN(C)Cc1c(C)[nH]nc1[C@H]1CC[C@@]2(CC1)CC(C)(C)CO2 [compound 57]
IC50: 0.0258 µM

CNCCN(C)Cc1c(C)[nH]nc1[C@H]1CC[C@]2(CC1)CC(C)(C)CO2 [compound 58]
IC50: 0.0387 µM

Cc1[nH]nc(C2CCC3(CC2)CC(C)(C)CO3)c1CN(C)CCN (stereo not drawn) [compound 59]
IC50: 0.0114 µM

CCOCC1(COCC)CC=C(c2n[nH]cc2CN(C)CCNC)CC1 [compound 60]
IC50: 0.0149 µM

CNCCN(C)Cc1scnc1[C@H]1CC[C@@]2(CC1)CC(C)(C)CO2 [compound 62]
IC50: 0.00418 µM

CNCCN(C)Cc1nn(C)nc1[C@H]1CC[C@@]2(CC1)CC(C)(C)CO2 [compound 64]
IC50: 0.0319 µM

CNCCN(C)Cc1cnnn1[C@H]1CC[C@@]2(CC1)CC(C)(C)CO2 [compound 65]
IC50: > 10 µM

CNCCN(C)Cc1nn[nH]c1[C@H]1CC[C@@]2(CC1)CC(C)(C)CO2 [compound 67]
IC50: 0.0115 µM

CNCCN(C)Cc1nncn1[C@H]1CC[C@@]2(CC1)CC(C)(C)CO2 [compound 68]
IC50: 4.33 µM

CNCCN(C)Cc1nccn1[C@H]1CC[C@@]2(CC1)CC(C)(C)CO2 [compound 69]
IC50: 0.255 µM

CNCCN(C)Cc1nnc(C)n1[C@H]1CC[C@@]2(CC1)CC(C)(C)CO2 [compound 71]
IC50: 5.1 µM

CNCCN(C)Cc1cncn1[C@H]1CC[C@@]2(CC1)CC(C)(C)CO2 [compound 76]
IC50: 0.0146 µM

CNCCN(C)Cc1nc(C)sc1[C@H]1CC[C@@]2(CC1)CC(C)(C)CO2 [compound 77]
IC50: 0.0229 µM

CNCCN(C)Cc1sc(C)nc1[C@H]1CC[C@@]2(CC1)CC(C)(C)CO2 [compound 78]
IC50: 0.023 µM

CN(CCN)Cc1nn(C)cc1[C@H]1CC[C@@]2(CC1)CC(C)(C)CO2 [compound 80]
IC50: 0.00583 µM

CNCCN(C)Cc1nn(C)cc1[C@H]1CC[C@@]2(CC1)CC(C)(C)CO2 [compound 81]
IC50: 0.0228 µM

CNCCN(C)Cc1ncsc1[C@H]1CC[C@@]2(CC1)CC(C)(C)CO2 [compound 83]
IC50: 0.0148 µM
